Active and inactive are the calls of the source. Rule as the data show it, for most assays here: actives have a measured EC50 and inactives only a lower limit.
Assays:
[1] = HEp-2 cell cytotoxicity, dose response, cytotoxicity control for RSV inhibitor project, HTS (AID 2410); assay type: functional; conditions: human respiratory syncytial virus
[2] = NIH-3T3 fibroblast cytotoxicity, dose response, cytotoxicity control, cell-based, fluorescence, Alamar Blue, secondary assay (AID 2327); assay type: functional;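 also: NIH-3T3 mouse fibroblasts cultured with fluconazole at 8 µg/mL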
[3] = inhibitors of intracellular T. cruzi replication, confirmation, NIH3T3 host cells, beta-gal luminescence (AID 2044); assay type: functional, cell-based;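 also: intracellular parasites grown in NIH/3T3 mouse fibroblasts as host cells; luminescent beta-galactosidase reporter signal from transgenic T. cruzi replicating inside host cells; inhibitors lower the luminescence signal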
[4] = C. albicans growth with fluconazole, confirmation, fluorescence, retest (AID 2467); assay type: functional, cell-based
[5] = cytotoxicity toward NIH3T3 fibroblasts, dose response, counter-screen, cell-based, ATP luminescence, mouse fibroblasts (AID 2010); assay type: functional;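 also: cells exposed to compound for about 90 hours before reading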
[6] = target: Luciferin 4-monooxygenase (Photinus pyralis, UniProt P08659); assay: firefly luciferase enzyme inhibitors, dose response, biochemical, luminescence (AID 1891)
[7] = control 3'UTR Renilla luciferase suppression, dose response, counter-screen for Shn3 inhibitor project, cell-based, Clone20-Shn3RL, cherry-picked (AID 624133); assay type: functional
[8] = Shn3 3'UTR reporter inhibitors, dose response, cell-based, Clone20 osteoblasts, firefly luciferase, cherry-picked (AID 624132); assay type: functional;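 also: firefly luciferase luminescence from reporter carrying the Shn3 3'UTR in osteoblasts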
[9] = Luminescence Cell-Based Dose Retest to Confirm Inhibitors of Cancer Stem Cells. [Related pubchem assays (depositor defined):AID2717, AID2721]; assay type: functional; conditions: Homo sapiens
[10] = target: T1, Corticotropin-releasing factor receptor 2/Corticotropin-releasing factor-binding protein (Homo sapiens, UniProt P24387+Q13324); assay: activators of CRF receptor 2 with binding protein – uHTS hits, confirmation (AID 602473); assay type: functional; conditions: read-out: EC50_Mean
T1 sequence (Q13324 whole entry): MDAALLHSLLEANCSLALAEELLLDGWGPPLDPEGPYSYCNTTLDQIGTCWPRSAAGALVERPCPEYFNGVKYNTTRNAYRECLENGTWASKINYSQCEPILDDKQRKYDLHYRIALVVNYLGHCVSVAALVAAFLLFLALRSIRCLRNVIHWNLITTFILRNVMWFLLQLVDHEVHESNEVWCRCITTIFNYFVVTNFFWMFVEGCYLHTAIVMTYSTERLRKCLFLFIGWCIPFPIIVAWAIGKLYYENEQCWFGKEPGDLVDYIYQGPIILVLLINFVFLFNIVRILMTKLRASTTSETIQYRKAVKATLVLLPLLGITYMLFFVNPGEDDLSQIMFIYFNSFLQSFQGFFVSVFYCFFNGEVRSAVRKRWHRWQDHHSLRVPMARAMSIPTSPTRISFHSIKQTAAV
T1 sequence (P24387 whole entry): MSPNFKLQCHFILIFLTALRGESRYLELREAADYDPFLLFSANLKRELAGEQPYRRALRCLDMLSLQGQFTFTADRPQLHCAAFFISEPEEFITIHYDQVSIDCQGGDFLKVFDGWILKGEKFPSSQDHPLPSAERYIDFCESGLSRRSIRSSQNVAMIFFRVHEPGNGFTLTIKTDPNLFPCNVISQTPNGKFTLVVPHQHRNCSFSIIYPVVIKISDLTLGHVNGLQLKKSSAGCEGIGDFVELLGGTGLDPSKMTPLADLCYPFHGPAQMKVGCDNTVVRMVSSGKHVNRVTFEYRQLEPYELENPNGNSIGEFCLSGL

cells [11] = assay type: functional, cell-based
cells [12] = assay type: functional, cell-based; remark: listed apart in the source
[13] = Luminescence Cell-Based Dose Confirmation HTS to Identify Inhibitors of Platelet Dense Granule Release. [Related pubchem assays: 1663 (Primary HTS), 1678 (Summary of Project)]; assay type: functional

Luciferin 4-monooxygenase, sequence (P08659 whole entry): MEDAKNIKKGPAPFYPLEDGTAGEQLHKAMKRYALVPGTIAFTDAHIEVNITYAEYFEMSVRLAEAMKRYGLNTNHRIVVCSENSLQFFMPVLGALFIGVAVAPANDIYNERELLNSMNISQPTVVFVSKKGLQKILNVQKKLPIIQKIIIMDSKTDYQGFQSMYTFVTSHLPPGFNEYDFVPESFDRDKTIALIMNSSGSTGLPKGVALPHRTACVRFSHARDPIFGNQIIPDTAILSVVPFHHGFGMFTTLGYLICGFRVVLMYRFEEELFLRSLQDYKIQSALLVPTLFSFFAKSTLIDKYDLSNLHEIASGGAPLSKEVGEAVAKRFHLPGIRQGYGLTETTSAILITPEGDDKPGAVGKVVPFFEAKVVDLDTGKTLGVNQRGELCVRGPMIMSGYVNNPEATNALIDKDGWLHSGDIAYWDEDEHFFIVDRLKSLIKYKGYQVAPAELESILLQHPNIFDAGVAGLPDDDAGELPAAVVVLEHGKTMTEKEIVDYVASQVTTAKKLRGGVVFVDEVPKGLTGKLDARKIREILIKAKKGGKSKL

With `Cc1ccc(-c2ccc(/C=C/C(=O)c3ccccc3)o2)cc1` as the molecule, how does the CC50 [1] read?
Its CC50 is 12.8 µM (active).

For `CCOc1ccc(C(=O)Nc2ccc(Cc3ccncc3)cc2)cc1Br`, which EC50 [2] is on record?
The EC50 was > 150 µM (inactive).

What about the EC50 [3] of the same molecule?
The EC50 was 1.68 µM (active).

What about the EC50 [4] of the same molecule?
The EC50 was > 38 µM (not active).

And the EC50 [5]?
Its EC50 is > 60 µM (not active).

For `CNC(=S)Nc1ccc(C(N)=O)cc1`, which EC50 [6] is on record?
The EC50 was > 112 µM (not active).

Which CC50 [1] does the source give for `Cc1ccc2[nH]c(SCC(=O)Nc3ccc(C)c([N+](=O)[O-])c3)nc2c1` here?
Its CC50 is 25.5 µM (active).

With `Cc1cc(CN2CCOCC2)c(O)c(C2(C)CCCCC2)c1` as the molecule, how does the AC50 [7] read?
The AC50 was 32.1 µM (active).

What about the AC50 [8] of the same molecule?
Its AC50 is 32.3 µM (active).

Which EC50 [2] does the source give for `O=C(NNC(=O)c1cc(Cl)ccc1O)c1ccc(NS(=O)(=O)c2cccs2)cc1` here?
Its EC50 is > 160 µM (inactive).

What about the AC50 [9] of the same molecule?
Its AC50 is 9 µM (active).

What about the EC50 [4] of the same molecule?
The EC50 was > 38 µM (not active).

With `O=C(Nc1ccc(-n2cnnn2)cc1)c1cn2ccccc2n1` as the molecule, how does the EC50 [10] read?
Its EC50 is > 53 µM (inactive).

For `Cc1ccc(-n2c(-c3cccs3)nc3ccccc3c2=O)cc1`, which AC50 [9] is on record?
Its AC50 is 2 µM (active).

For `CCOCCCN=C(S)Nc1cc(C)cc(C)c1`, which EC50 (cells [11]) is on record?
Its EC50 is > 350 µM (not active).

And the EC50 (cells [12])?
The EC50 was > 350 µM (not active).

With `COc1cccc(N2CCN(Cc3nc(O)c4c(-c5ccccc5)csc4n3)CC2)c1` as the molecule, how does the AC50 [9] read?
The AC50 was 1.08 µM (active).

Which CC50 [1] does the source give for `O=C(Cn1cnc2c(cnn2-c2ccccc2)c1=O)N1CCOCC1` here?
The CC50 was 30.5 µM (active).

Which results are given for `Cc1ccc(-n2c(C)cc(/C(O)=C(/C([S-])=Nc3ccc(F)c(Cl)c3)[n+]3ccccc3)c2C)cc1`?
EC50 [2]: > 160 µM (inactive); EC50 [4]: > 38 µM (not active)

Which AC50 [9] does the source give for `Cc1ccc(S(=O)(=O)N2[C@@H](c3ccc(C(C)(C)C)cc3)C(C(=O)O)=CC[C@H]2c2cccc(Cl)c2)cc1` here?
Its AC50 is 2.86 µM (active).

With `Cc1cc(NC(=O)c2ccc3c(c2)OCO3)ccc1NC(=O)c1ccco1` as the molecule, how does the EC50 [13] read?
The EC50 was 12.7 µM (active).

And the EC50 [6]?
The EC50 was 4.06 µM (active).

With `COc1ccc(-c2cn3c(C)c(C(=O)N4CCCc5ccccc54)sc3n2)cc1` as the molecule, how does the CC50 [1] read?
Its CC50 is 13.3 µM (active).

Which EC50 [2] does the source give for `COc1ccc(NC(=O)Nc2nc3c(s2)CCCC3)cc1` here?
Its EC50 is > 150 µM (inactive).

What about the EC50 [4] of the same molecule?
Its EC50 is 8.48 µM (active).

For `COc1cc(OC)cc(C(=O)NNC(=O)c2cc3ccccc3cc2O)c1`, which EC50 [2] is on record?
The EC50 was > 160 µM (inactive).

What about the EC50 [4] of the same molecule?
Its EC50 is > 38 µM (not active).

For `c1ccc(Cn2nnc3c(N4CCC5(CC4)OCCO5)ncnc32)cc1`, which CC50 [1] is on record?
Its CC50 is 29.6 µM (active).

Which EC50 [13] does the source give for `COc1cccc(C(=O)NCc2ccc3c(c2)cc(C)n3C)c1` here?
The EC50 was 21.3 µM (active).

And the EC50 [6]?
Its EC50 is > 112 µM (not active).

From ChEMBL document CHEMBL1201862, “PubChem BioAssay data set” (2004)
